From BigSolDB 2.1

NC(=O)c1cnccn1
solubility (mole fraction)
Details | 278.15 K | 283.15 K | 288.15 K | 293.15 K | 298.15 K | 303.15 K | 308.15 K | 313.15 K | 318.15 K | 323.15 K
in acetone | 0.00249 | 0.00304 | 0.00357 | 0.00424 | 0.00495 | 0.00574 | 0.00674 | 0.00784 | 0.00897 | 0.00975
in acetonitrile | 0.00125 | 0.00162 | 0.00205 | 0.00248 | 0.00294 | 0.00351 | 0.0042 | 0.00497 | 0.0058 | 0.00633
in ethyl acetate | 0.0016 | 0.00219 | 0.0024 | 0.00312 | 0.0035 | 0.00416 | 0.00475 | 0.00581 | 0.00666 | 0.00775
in isopropanol | 0.000619 | 0.000973 | 0.00136 | 0.00181 | 0.00224 | 0.00279 | 0.00365 | 0.00466 | 0.00574 | 0.00692
in methanol | 0.00208 | 0.00265 | 0.00328 | 0.00384 | 0.0047 | 0.00563 | 0.0071 | 0.00828 | 0.01 | –
in n-butanol | 0.000772 | 0.00116 | 0.00148 | 0.00192 | 0.00237 | 0.00309 | 0.00396 | 0.00512 | 0.00623 | 0.00731
in n-propanol | 0.000775 | 0.00123 | 0.00145 | 0.00179 | 0.00245 | 0.00297 | 0.00394 | 0.00503 | 0.00616 | 0.00707
in sec-butanol | 0.00053 | 0.00081 | 0.00108 | 0.0015 | 0.00188 | 0.00252 | 0.00332 | 0.00434 | 0.00564 | 0.00696
in water | 0.00105 | 0.00131 | 0.00168 | 0.00194 | 0.0024 | 0.00284 | 0.00362 | 0.00421 | 0.00521 | 0.006
